Experimental data reported in patent EP1997826A2, “Synthetic ligands for immunoglobulins and pharmaceutical compositions containing them” (Tecnogen S.p.A., priority 2007, dated 2008).

System: female mice of the Balb/c strain
Format: in vivo, mouse
Description: Active cutaneous anaphylaxis on the mouse ear was induced according to the procedure described by Inagaki et al., Japan. J. Pharmacol. 1992, 59:201-208. Female mice of the Balb/c strain were immunized with the ovalbumin antigen in the presence of the adjuvant aluminium hydroxide gel (alum). The immunizations were carried out by intraperitoneal administration of 25 µg of ovalbumin and 1 mg of alum dissolved in 200 µl of PBS. A control group received intraperitoneal injections that only contained 1 mg of alum dissolved in 200 µl of PBS. […] After 30 minutes, the appearance, on the mouse ear, of stained areas in the dermis, with extent and intensity of staining proportional to the quantity of allergen injected, was observed. […] The sample was then stirred and filtered, and finally the amount of dye was determined with a spectrophotometer, taking readings at 620 nm. […] Extraction and quantification of the Evans Blue dye, discharged in the local inflammatory reaction, were carried out as described previously.

## (H-L-Cys(p-MeOBzl)-D-Arg-D-Thr-D-Tyr)4-L-Lys2-L-Lys-L-Lys-OH [Peptide IB]
Dose of Peptide 100 mg/kg intraperitoneally, 30 minutes before ovalbumin
  Inhibition of skin reaction (%): 100%
Mouse ear active cutaneous anaphylaxis
  activity greater than the activity of the comparative peptide: approx. 15 times
